These results are taken from patent US10590114B2, “Compounds, compositions, and methods” (Denali Therapeutics Inc., priority 2016, dated 2020).

Data set [1] can be described thus: Metabolic stability in human liver microsomes. It is filed as in vitro ADME. The following applies: Table 5; 1 μM compound, 0.5 mg/mL protein, projected human hepatic clearance, well-stirred model. As for the experimental part:
Metabolic stability of compounds was evaluated in human liver microsomes (from Corning or XenoTech, LLC) using a 96-well plate assay format. Compounds were incubated at 37° C. at 1 μM final concentration in the microsomal matrix (0.5 mg/mL total protein) in the presence or absence of NADPH cofactor. An NADPH regenerating system, comprised of NADP, MgCl2, isocitric acid, and isocitrate dehydrogenase, was used in the assay. Enzymatic reactions were conducted for 0, 5, 10, 20, 30, or 60 min before termination by addition of acetonitrile containing tolbutamide and labetalol internal standards (100 ng/mL). After shaking for 10 min, plates were subjected to centrifugation (4000 rpm at 4° C.) for 20 min and supernatants were mixed 1:3 with HPLC grade water. Samples were analyzed by LC-MS/MS using appropriate MRM transitions for each analyte and internal standard (IS). Analyte/IS peak area ratios were used to determine percent compound remaining at each time point. Intrinsic clearance (Clint; expressed as mL·min^−1·mg^−1) was calculated from the first order elimination constant (k, min^−1) of test article decay and the volume of the incubation. These values were scaled to intrinsic organ clearance (Clint) using human specific scaling factors (48.8 mg microsomal protein per g liver; 25.7 g liver per kg body weight). […]
(Liver microsomes are a subcellular fraction often used to study metabolism.)

A further data set deals with MDR1 (P-glycoprotein) (Homo sapiens (Human), UniProt P08183). As to the kind of experiment: MDR1-MDCK permeability, bidirectional assay. Conditions: MDR1-MDCK cells, efflux ratio, 1 μM, HBSS pH 7.4. Type of data set: in vitro ADME. Here is the method:
The blood brain barrier (BBB) separates circulating blood from the extracellular fluid of the central nervous system (CNS). The passive membrane permeability (Papp) and MDR1 (P-glycoprotein) substrate efflux potential were determined using the MDR1-MDCK cell line as an in vitro model of the effective permeability of a compound through the BBB. A bidirectional assay was conducted in pre-plated MDR1-MDCK cells using a 12 or 96-well plate in the absence or presence of MDR1 inhibitor (GF120918 or Valspodar). Assays were run in duplicate in transport buffer (HBSS, pH 7.4) for 90 or 120 min (minutes) at 37° C., using a test article concentration of 1 μM. […] Papp (apparent permeability expressed in cm/sec [centimeter/second]) values were calculated according to the following equation:
[formula] where VR is the solution volume in the receiver chamber (apical or basolateral side), Area is the surface area for the insert membrane), Time is incubation time expressed in seconds, CR is the peak area ratio (analyte/IS) in the receiver chamber, CA is the average of the initial and final concentrations in the donor chamber, and CO is the initial peak area ratio in the donor chamber. Papp was determined in both the apical to basolateral (A→B) and basolateral to apical (B→A) directions. […]

Sequence of MDR1 (P-glycoprotein) (P08183 whole entry): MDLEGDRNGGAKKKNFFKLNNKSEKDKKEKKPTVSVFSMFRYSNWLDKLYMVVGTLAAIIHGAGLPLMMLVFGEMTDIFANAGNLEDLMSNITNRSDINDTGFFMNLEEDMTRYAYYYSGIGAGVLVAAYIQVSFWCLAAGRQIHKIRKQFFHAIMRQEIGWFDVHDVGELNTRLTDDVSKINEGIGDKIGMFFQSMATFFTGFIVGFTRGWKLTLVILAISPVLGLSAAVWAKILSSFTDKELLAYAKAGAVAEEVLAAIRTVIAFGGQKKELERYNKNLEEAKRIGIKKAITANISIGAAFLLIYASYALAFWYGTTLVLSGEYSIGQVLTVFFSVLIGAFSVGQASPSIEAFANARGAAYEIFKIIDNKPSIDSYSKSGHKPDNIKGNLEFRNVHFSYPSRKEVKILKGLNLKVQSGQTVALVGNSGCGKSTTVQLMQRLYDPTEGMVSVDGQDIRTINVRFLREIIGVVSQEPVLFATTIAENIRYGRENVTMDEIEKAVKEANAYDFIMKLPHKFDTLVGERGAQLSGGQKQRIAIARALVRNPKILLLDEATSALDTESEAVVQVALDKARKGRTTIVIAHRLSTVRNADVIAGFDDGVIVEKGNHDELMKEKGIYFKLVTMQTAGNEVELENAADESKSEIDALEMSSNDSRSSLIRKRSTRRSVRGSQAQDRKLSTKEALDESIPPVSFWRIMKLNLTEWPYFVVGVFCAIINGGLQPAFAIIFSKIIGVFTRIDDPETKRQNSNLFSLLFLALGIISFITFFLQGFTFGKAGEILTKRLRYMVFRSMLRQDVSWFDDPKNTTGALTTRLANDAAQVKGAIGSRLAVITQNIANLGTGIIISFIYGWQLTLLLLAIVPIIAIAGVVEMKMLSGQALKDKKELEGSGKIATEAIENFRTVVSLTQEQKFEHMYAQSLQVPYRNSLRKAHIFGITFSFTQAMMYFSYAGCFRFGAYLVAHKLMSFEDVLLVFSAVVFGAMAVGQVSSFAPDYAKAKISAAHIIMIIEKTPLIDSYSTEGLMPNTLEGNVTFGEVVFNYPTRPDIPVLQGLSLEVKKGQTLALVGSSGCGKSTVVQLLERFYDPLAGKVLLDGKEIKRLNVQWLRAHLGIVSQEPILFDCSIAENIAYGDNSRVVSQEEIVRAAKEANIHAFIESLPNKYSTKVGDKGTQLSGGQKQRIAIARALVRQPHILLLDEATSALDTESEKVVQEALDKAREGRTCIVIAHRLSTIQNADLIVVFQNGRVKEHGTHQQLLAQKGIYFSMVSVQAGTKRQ

For `CNc1nc(Nc2cn(C(C)(C)c3ncn(C)n3)nc2C)ncc1C(F)(F)F` [Compound 218], the “Human liver microsomes CLhep” value in data set [1] is recorded as 0 mL/min/kg.
As to `CCNc1nc(Nc2cc(C3(C)CCn4ncnc43)nn2C2CC2)ncc1C(F)(F)F` (single isomer, unassigned) [Compound 172], the “MDR1 ER” value on MDR1 (P-glycoprotein) is given as 42.
